For this experiment, the system named is 843126-344-R-J1-PDC complex spheroid viability. In words: Anticancer human tumor 843126-344-R-J1-PDC patient-derived melanoma cell line growth inhibition [POLQ]. Particulars: for viability, T/C: stronger effect = lower value. On the procedure: Multicellular complex tumor spheroid response to Polymerase (POL) inhibitors (novobiocin, ART-558, RP6685) in combination with a variety of drugs and investigational agents in selected tumor cell lines
The POL inhibitors (novobiocin, ART-558, and RP6685) were evaluated both individually and in combination with standard of care and investigational anticancer small molecules within a complex spheroid model of solid tumors. . Complex spheroids include a stromal component modeled by human endothelial cells (HUVEC) and fibroblasts modeled by human mesenchymal stem cells (MSCs). The concentration ranges selected for each drug and investigational agent were based upon clinically achievable concentrations if the clinical Cmax of the agent was known.
Compounds. The drugs and investigational agents: novobiocin (NSC847541), ART-558 (NSC835418), RP-6685 (NSC848927), peposertib (NSC802822), ceralasertib (NSC780249), elimusertib (NSC800525), camonsertib (NSC841442), AZD-1390 (NSC803789), olaparib (NSC753686), talazoparib (NSC767125), rucaparib (NSC756644), sotorasib (NSC818433), MRTX-1133 (NSC836407), SN-38 (NSC673596), topotecan (NSC609699), epotoside (NSC141540), doxorubicin (NSC123127), gemcitabine (NSC613327), 5-fluorouracil (NSC19893), paclitaxel (NSC125973), vemurafenib (NSC761431), MSA-2 (NSC828583), SN-011 (NSC837082), adavosertib (NSC754352), prexasertib (NSC758257), carboplatin (NSC241240) and oxaliplatin (NSC266046), were obtained from the National Cancer Institute (NCI) Developmental Therapeutics Program Chemical Repository (21). The FDA-approved anticancer drug set is available from the Developmental Therapeutics Program at https://dtp.cancer.gov/organization/dscb/obtaining/. […] The stock solutions were prepared in dimethyl sulfoxide (DMSO, Sigma-Aldrich, St. Louis, MO, cat. D2650), except for the platinum compounds which were prepared in saline (Quality Biological, Gaithersburg, MD, cat. 114-055-101), at 800-fold the tested concentration and stored at -70 degrees C prior to their use. All drugs and investigational agents were tested over a range starting from a high concentration at or near the clinical Cmax and decreasing in half-log increments. If the clinical Cmax for an agent had not been determined, the highest concentration tested was 10 microM, except for SN-38, which was tested at a high concentration of 1 microM.
Cell Culture. All cells were maintained in an incubator at 37 degrees C and 5% CO2 with 95% humidity. The PDC lines were cultured according to standard operating procedures established by the NCI PDMR (https://pdmr.cancer.gov). Table 3 of the manuscript, lists the cell lines along with the number of the three cell types plated to form the mct-spheroids and media for tumor cell growth. After thawing, all PDC lines, except 997537-175-T-J1-PDC and 415267-285-R-J2-PDC, were cultured in Matrigel-coated flasks prepared with a working solution of 1X Ham's F-12 nutrient mix, without supplementation (Thermo Fisher Scientific, cat. 11765054), 100 U/mL penicillin-streptomycin (Thermo Fisher Scientific, cat. 15140122), and 2.5% Matrigel (Corning Inc., Corning, NY, cat. 354248) for the first three passages. The two PDC lines 997537-175-T-J1-PDC and 415267-285-R-J2-PDC were cultured on uncoated flasks. The 857933-349-R-J2-PDC line was cultured in 6C/Colon 1B media containing advanced DMEM/F-12 (Thermo Fisher Scientific, cat. 12634028), 10 mM HEPES (Thermo Fisher Scientific, cat. 15630080), 1X GlutaMAX supplement (Thermo Fisher Scientific, cat. 35050061), 0.1 mg/mL primocin (InvivoGen, San Diego, CA, cat. ant-pm-2), 10% defined fetal bovine serum, heat inactivated (HyClone Laboratories Inc., Logan, UT, cat. SH30070.03HI), 50% L-WRN conditioned media (ATCC, cat. CRL-3276), 1.25 mM N-Acetyl-L-cysteine (Sigma-Aldrich, cat. A9165), 10 mM nicotinamide (Sigma-Aldrich, cat. N0636), 1X B-27 supplement (Thermo Fisher Scientific, cat. 17504044), 1X N-2 supplement (Thermo Fisher Scientific, cat. […]

The mark [1] stands for this setting: curve of first compound, second compound 0.0316 µM.
Where [2] appears, read: curve of first compound, second compound 0.1 µM.
Where [3] appears, read: curve of first compound, second compound 0.316 µM.
[4] abbreviates: curve of first compound, second compound 1 µM.
Where [5] appears, read: curve of first compound, second compound 3.16 µM.
Setting [6] is: curve of first compound, second compound 10 µM.
The mark [7] stands for this setting: second compound 0.0316 µM, first compound 0.0316 µM.
The mark [8] stands for this setting: second compound 0.0316 µM, first compound 0.1 µM.
[9] abbreviates: second compound 0.0316 µM, first compound 0.316 µM.
Setting [10] is: second compound 0.0316 µM, first compound 1 µM.
Where [11] appears, read: second compound 0.0316 µM, first compound 3.16 µM.
Where [12] appears, read: second compound 0.0316 µM, first compound 10 µM.
[13] abbreviates: second compound 0.1 µM, first compound 0.0316 µM.
The mark [14] stands for this setting: second compound 0.1 µM, first compound 0.1 µM.
Setting [15] is: second compound 0.1 µM, first compound 0.316 µM.
Setting [16] is: second compound 0.1 µM, first compound 1 µM.
[17] abbreviates: second compound 0.1 µM, first compound 3.16 µM.
Where [18] appears, read: second compound 0.1 µM, first compound 10 µM.
Where [19] appears, read: second compound 0.316 µM, first compound 0.0316 µM.
Setting [20] is: second compound 0.316 µM, first compound 0.1 µM.
[21] abbreviates: second compound 0.316 µM, first compound 0.316 µM.
Setting [22] is: second compound 0.316 µM, first compound 1 µM.
Where [23] appears, read: second compound 0.316 µM, first compound 3.16 µM.
Where [24] appears, read: second compound 0.316 µM, first compound 10 µM.
Where [25] appears, read: second compound 1 µM, first compound 0.0316 µM.
Where [26] appears, read: second compound 1 µM, first compound 0.1 µM.
Setting [27] is: second compound 1 µM, first compound 0.316 µM.
Where [28] appears, read: second compound 1 µM, first compound 1 µM.
Where [29] appears, read: second compound 1 µM, first compound 3.16 µM.
The mark [30] stands for this setting: second compound 1 µM, first compound 10 µM.
The mark [31] stands for this setting: second compound 3.16 µM, first compound 0.0316 µM.
The mark [32] stands for this setting: second compound 3.16 µM, first compound 0.1 µM.
The mark [33] stands for this setting: second compound 3.16 µM, first compound 0.316 µM.
Setting [34] is: second compound 3.16 µM, first compound 1 µM.
The mark [35] stands for this setting: second compound 3.16 µM, first compound 3.16 µM.
Where [36] appears, read: second compound 3.16 µM, first compound 10 µM.
Setting [37] is: second compound 10 µM, first compound 0.0316 µM.
Where [38] appears, read: second compound 10 µM, first compound 0.1 µM.
[39] abbreviates: second compound 10 µM, first compound 0.316 µM.
The mark [40] stands for this setting: second compound 10 µM, first compound 1 µM.
Where [41] appears, read: second compound 10 µM, first compound 3.16 µM.
[42] abbreviates: second compound 10 µM, first compound 10 µM.

Several values for one entry are separate records, joined by “and”; a condition that tells them apart may be missing. Equal entries are not always repeated. Bounds are passed on as bounds.

In general, viability, T/C refers to the result in the treated group divided by that in the control group, in per cent. The IC50 is the concentration needed to halve the response being measured.
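For viability, T/C in this document: spheroids exposed to drugs for seven days before readout.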

Turning to `CC1COCCN1c1cc(-c2ccnn2C)c2ccnc(-c3ccn[nH]3)c2n1` (centres undefined), the viability, T/C runs as follows: (compound 0.0316 µM) 93.7% and 70.9% and 85.8%; (compound 0.1 µM) 87% and 64.9% and 70.9%; (compound 0.316 µM) 85.9% and 57.1% and 61.9%; (compound 1 µM) 44.4% and 47.7% and 48.8%; (compound 3.16 µM) 38.5% and 40.5% and 38.8%; (compound 10 µM) 33.1% and 23.9% and 32.7%. Also, the IC50 (curve of compound) was 0.858 µM and 0.836 µM and 0.903 µM.

In the case of `CCc1cc2c(N3CCc4c(cc(Cn5ccnc5)cc4-c4cn(C)nc4C(F)(F)F)C3=O)ccnc2c(OC)n1`, the viability, T/C runs as follows: (compound 0.0316 µM) 85.3% and 83.1% and 106%; (compound 0.1 µM) 78.4% and 81% and 75.8%; (compound 0.316 µM) 84.9% and 88.6% and 90.4%; (compound 1 µM) 76% and 83.2% and 91.5%; (compound 3.16 µM) 74.6% and 78.3% and 72.3%; (compound 10 µM) 53.8% and 58.4% and 66.4%. Also, the IC50 (curve of compound) was over 10 µM.

With `CCc1cc2c(N3CCc4c(cc(Cn5ccnc5)cc4-c4cn(C)nc4C(F)(F)F)C3=O)ccnc2c(OC)n1` + Cc1cccc(N(C)C(=O)C2C(O)CCN2c2nc(C)cc(C(F)(F)F)c2C#N)c1, the IC50 was over 10 µM under setting [1]; over 10 µM under setting [2]; over 10 µM under setting [3]; over 10 µM under setting [4]; over 10 µM under setting [5]; over 10 µM under setting [6]. The viability, T/C under setting [7] is 91.3%; the viability, T/C under setting [8] was 79.8%; the viability, T/C under setting [9] is 80.6%; the viability, T/C under setting [10] is 83.3%; the viability, T/C under setting [11] was 69.9%; the viability, T/C under setting [12] was 61.4%. Moreover, the viability, T/C runs as follows: under setting [13], 90%; under setting [14], 88.4%; under setting [15], 87.1%; under setting [16], 90%; under setting [17], 72.3%; under setting [18], 60.4%. The viability, T/C is 99.6% under setting [19]; 74.9% under setting [20]; 86% under setting [21]; 78.5% under setting [22]; 69% under setting [23]; 61.2% under setting [24]. Further, the viability, T/C reads like this: under setting [25], 101%; under setting [26], 77.3%; under setting [27], 86.3%; under setting [28], 73.5%; under setting [29], 68%; under setting [30], 55.3%. In addition, the viability, T/C reads like this: under setting [31], 100%; under setting [32], 84.8%; under setting [33], 79.3%; under setting [34], 72.4%; under setting [35], 69.3%; under setting [36], 63.1%. Further, the viability, T/C is 88.2% under setting [37]; 92.2% under setting [38]; 75.5% under setting [39]; 68.8% under setting [40]; 70.7% under setting [41]; 64.4% under setting [42].

For `COc1cccc2c1C(=O)c1c(O)c3c(c(O)c1C2=O)CC(O)(C(=O)CO)CC3OC1CC(N)C(O)C(C)O1` (centres undefined), the viability, T/C is 82.8% and 77.3% and 86.3% (compound 0.0316 µM); 70.2% and 71% and 79.7% (compound 0.1 µM); 44.3% and 47.8% and 56.8% (compound 0.316 µM); 12.3% and 15.1% and 18.4% (compound 1 µM); 4.78% and 2.95% and 3.66% (compound 3.16 µM); 3.94% and 2.18% and 3.96% (compound 10 µM). The IC50 (curve of compound) was 0.237 µM and 0.282 µM and 0.385 µM.

`O=c1[nH]cc(F)c(=O)[nH]1`: the viability, T/C was 119% and 102% and 97% (compound 0.0316 µM); 107% and 84.6% and 86.3% (compound 0.1 µM); 104% and 89.5% and 75.2% (compound 0.316 µM); 102% and 96.6% and 104% (compound 1 µM); 106% and 98.3% and 96.6% (compound 3.16 µM); 79.5% and 96.8% and 76.3% (compound 10 µM). In addition, where the note is “curve of compound”, the IC50 is over 10 µM.

On to `COc1cc2cc(C(=O)CCC(=O)O)sc2cc1OC` + COC1C(OC(N)=O)C(O)C(Oc2ccc3c(O)c(NC(=O)c4ccc(O)c(CC=C(C)C)c4)c(=O)oc3c2C)OC1(C)C, for which the IC50 is, setting by setting: under setting [1], over 10 µM; under setting [2], over 10 µM; under setting [3], over 10 µM; under setting [4], over 10 µM; under setting [5], over 10 µM; under setting [6], over 10 µM. Moreover, the viability, T/C by setting is: under setting [7], 93.2%; under setting [8], 82.8%; under setting [9], 99.1%; under setting [10], 89.6%; under setting [11], 94.1%; under setting [12], 87.2%. Also, the viability, T/C by setting is: under setting [13], 97.5%; under setting [14], 112%; under setting [15], 103%; under setting [16], 91%; under setting [17], 108%; under setting [18], 94.4%. Moreover, the viability, T/C is 91.8% under setting [19]; 104% under setting [20]; 121% under setting [21]; 117% under setting [22]; 89% under setting [23]; 84.4% under setting [24]. For the same molecule, the viability, T/C was 96.1% under setting [25]; 92.7% under setting [26]; 87.3% under setting [27]; 85.6% under setting [28]; 96% under setting [29]; 87.2% under setting [30]. Further, the viability, T/C is 97.3% under setting [31]; 93.5% under setting [32]; 81.4% under setting [33]; 108% under setting [34]; 97.7% under setting [35]; 109% under setting [36]. Moreover, the viability, T/C was 98.8% under setting [37]; 92.7% under setting [38]; 97.8% under setting [39]; 110% under setting [40]; 107% under setting [41]; 90.9% under setting [42].

Turning to `CC1COCCN1c1cc(C2(S(C)(=N)=O)CC2)nc(-c2ccnc3[nH]ccc23)n1` (centres undefined), the viability, T/C was 87.2% and 79.8% and 109% (compound 0.0316 µM); 93.7% and 82.8% and 102% (compound 0.1 µM); 97.2% and 83.1% and 95% (compound 0.316 µM); 81.4% and 97.7% and 89.5% (compound 1 µM); 73.4% and 81.9% and 68% (compound 3.16 µM); 49.9% and 55.9% and 55.2% (compound 10 µM). In addition, the IC50 (curve of compound) was over 10 µM.

These data come from PubChem BioAssay AID1963837 (Molecular Pharmacology Branch, DTP, NCI, 2024).
